Results as given in ChEMBL document CHEMBL5518238, “Structure-Activity Relationship (SAR) Studies of Novel Monovalent AR/AR-V7 Dual Degraders with Potent Efficacy against Advanced Prostate Cancer” (J Med Chem, 2024).
The source made the active and inactive calls. The rule behind the calls is not given here.

Key:
[1] = system: DU-145; assay: Antiproliferative activity against AR-negative human DU-145 cells assessed as inhibition of cell growth incubated for 48 hrs by CCK-8 assay; format: functional, cell-based; conditions: DU-145, 48 h
[2] = system: Androgen receptor (Homo sapiens), P10275 [UNDEFINED MUTATION]; assay: (§1) Induction of AR-V7 degradation in human 22Rv1 cells incubated for 24 hrs by Western blot analysis; format: cell-based; conditions: dose 1-10 µM
[3] = biological target: Androgen receptor (Homo sapiens, UniProt P10275); assay: as §1; format: cell-based
[4] = biological target: T1, Androgen receptor (Homo sapiens) (UniProt P10275); assay: Induction of AR degradation in human LNCaP cells incubated for 24 hrs by Western blot analysis; format: cell-based; conditions: dose <= 30.0 µM
T1 sequence (whole entry): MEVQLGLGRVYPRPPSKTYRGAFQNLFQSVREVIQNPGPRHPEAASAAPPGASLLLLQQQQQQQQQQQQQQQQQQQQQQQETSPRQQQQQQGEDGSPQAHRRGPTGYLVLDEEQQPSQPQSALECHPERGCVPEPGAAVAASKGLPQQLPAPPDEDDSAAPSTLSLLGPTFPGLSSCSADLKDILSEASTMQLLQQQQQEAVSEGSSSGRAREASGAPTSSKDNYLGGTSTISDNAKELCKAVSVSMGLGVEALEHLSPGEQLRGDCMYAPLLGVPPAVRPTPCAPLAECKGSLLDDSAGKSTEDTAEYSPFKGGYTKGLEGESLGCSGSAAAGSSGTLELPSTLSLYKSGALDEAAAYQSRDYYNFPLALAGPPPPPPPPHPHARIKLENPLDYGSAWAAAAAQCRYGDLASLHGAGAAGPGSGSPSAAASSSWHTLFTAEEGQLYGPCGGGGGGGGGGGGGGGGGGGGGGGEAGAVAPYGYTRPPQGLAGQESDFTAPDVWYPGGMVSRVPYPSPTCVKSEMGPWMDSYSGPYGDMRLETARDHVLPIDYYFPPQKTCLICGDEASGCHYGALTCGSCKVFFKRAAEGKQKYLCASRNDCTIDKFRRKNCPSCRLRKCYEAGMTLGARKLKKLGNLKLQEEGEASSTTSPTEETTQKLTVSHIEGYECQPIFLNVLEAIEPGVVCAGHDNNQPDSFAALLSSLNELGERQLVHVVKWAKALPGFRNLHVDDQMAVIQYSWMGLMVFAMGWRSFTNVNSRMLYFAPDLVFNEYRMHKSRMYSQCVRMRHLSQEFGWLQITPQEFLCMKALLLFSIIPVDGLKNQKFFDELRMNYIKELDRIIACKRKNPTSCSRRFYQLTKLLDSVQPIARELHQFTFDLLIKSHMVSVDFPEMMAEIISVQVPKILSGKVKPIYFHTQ

[5] = system: LNCaP; assay: Antiproliferative activity against human LNCaP cells assessed as inhibition of cell growth incubated for 48 hrs by CCK-8 assay; format: functional, cell-based
[6] = system: Androgen receptor (Homo sapiens), P10275 [UNDEFINED MUTATION]; assay: Induction of AR-V7 degradation in human 22Rv1 cells at 20 uM incubated for 24 hrs in presence of Bortezomib by Western blot analysis; format: cell-based
[7] = system: CWR22R; assay: Effect on ER level in human 22Rv1 at 2.5 to 20 uM incubated for 24 hrs by Western blot analysis; format: functional, cell-based; conditions: dose 2.5-20 µM
[8] = system: CWR22R; assay: Effect on MR level in human 22Rv1 at 2.5 to 20 uM incubated for 24 hrs by Western blot analysis; format: functional, cell-based; conditions: dose 2.5-20 µM
[9] = system: CWR22R; assay: Drug localization in nucleus of human 22Rv1 cells at 5 uM incubated for 24 hrs by DAPI staining based immunofluorescence analysis; format: functional, cell-based
[10] = system: CWR22R; assay: Downregulation of FKBP5 mRNA expression in human 22Rv1 cells at 10 uM incubated for 24 hrs by qRT-PCR analysis; format: functional, cell-based
[11] = system: CWR22R; assay: Downregulation of BARD1 mRNA expression in human 22Rv1 cells at 10 uM incubated for 24 hrs by qRT-PCR analysis; format: functional, cell-based
[12] = system: CWR22R; assay: Downregulation of NKX3-1 mRNA expression in human 22Rv1 cells at 10 uM incubated for 24 hrs by qRT-PCR analysis; format: functional, cell-based
[13] = system: CWR22R; assay: Downregulation of PEG3 mRNA expression in human 22Rv1 cells at 10 uM incubated for 24 hrs by qRT-PCR analysis; format: functional, cell-based
[14] = system: CWR22R; assay: Downregulation of STEAP4 mRNA expression in human 22Rv1 cells at 10 uM incubated for 24 hrs by qRT-PCR analysis; format: functional, cell-based
[15] = system: CWR22R; assay: Downregulation of AR mRNA expression in human 22Rv1 cells at 5 to 10 uM incubated for 12 hrs by qRT-PCR analysis; format: functional, cell-based; conditions: dose 5-10 µM
[16] = system: CWR22R; assay: Downregulation of AR-V7 mRNA expression in human 22Rv1 cells at 5 to 10 uM incubated for 12 hrs by qRT-PCR analysis; format: functional, cell-based; conditions: dose 5-10 µM
[17] = system: CWR22R; assay: Induction of cell cycle arrest in human 22Rv1 cells assessed as accumulation of cells at G0/G1 phase at 5 uM incubated for 24 hrs by DAPI staining based flow cytometric analysis (reference value: 26.3 %); format: functional
[18] = system: CWR22R; assay: Induction of apoptosis in human 22Rv1 cells at 5 uM incubated for 24 hrs by Annexin V-FITC/PI staining based flow cytometric analysis (reference value: 3.70 %); format: functional
[19] = system: CWR22R; assay: Induction of apoptosis in human 22Rv1 cells assessed as effect on Bcl-2 level incubated for 24 hrs by Western blot analysis; format: functional, cell-based; conditions: dose <= 10.0 µM
[20] = Stability in mouse plasma assessed as half life measured after 60 mins; format: ADME, cell-free
[21] = Half life in Sprague-Dawley rat at 50 mg/kg, po by LC-MS/MS analysis; format: ADME, organism-based; conditions: in vivo
[22] = Volume of distribution at steady state in Sprague-Dawley rat at 5 mg/kg, iv by LC-MS/MS analysis; format: ADME, organism-based; conditions: in vivo
[23] = AUC (0 to t) in Sprague-Dawley rat at 50 mg/kg, po by LC-MS/MS analysis; format: ADME, organism-based; conditions: in vivo
[24] = AUC (0 to t) in Sprague-Dawley rat at 5 mg/kg, iv by LC-MS/MS analysis; format: ADME, organism-based; conditions: in vivo
[25] = AUC (0 to infinity) in Sprague-Dawley rat at 50 mg/kg, po by LC-MS/MS analysis; format: ADME, organism-based; conditions: in vivo
[26] = AUC (0 to infinity) in Sprague-Dawley rat at 5 mg/kg, iv by LC-MS/MS analysis; format: ADME, organism-based; conditions: in vivo
[27] = MRT (0 to infinity) in Sprague-Dawley rat at 50 mg/kg, po by LC-MS/MS analysis; format: ADME, organism-based; conditions: in vivo
[28] = Oral bioavailability in Sprague-Dawley rat at 50 mg/kg by LC-MS/MS analysis; format: ADME, organism-based; conditions: in vivo
[29] = system: CWR22R; assay: Antitumor activity against human 22Rv1 cells xenografted in NSG mouse assessed as decrease in AR level in tumor at 10 mg/kg, IG administered once daily for 3 days by […] based analysis; format: functional, organism-based; conditions: time 3.0 day
[30] = system: CWR22R; assay: Antitumor activity against human 22Rv1 cells xenografted in NSG mouse assessed as decrease in AR-V7 level in tumor at 10 mg/kg, IG administered once daily for 3 days by […] based analysis; format: functional, organism-based; conditions: time 3.0 day

With `CC1(C)C(=O)N(c2ccc(C#N)c(C(F)(F)F)c2)C(=O)N1CCNc1ccc(F)c2ncccc12` the IC50 [1] was greater than 50 µM, the Activity [2] was “Dose-Dependent Effect” and the DC50 [3] was 2640 nM. For the same molecule, the Activity [4] was “Dose-Dependent Effect”, the IC50 [5] was 1400 nM and the Activity [6] was “Active”. For the same molecule, the Activity [7] was “Active”, the Activity [8] was “Active” and the Activity [9] was “Active”. For the same molecule, the Activity [10] was “Active”, the Activity [11] was “Active” and the Activity [12] was “Active”. For the same molecule, the Activity [13] was “Active”, the Activity [14] was “Active” and the Activity [15] was “Active”. The Activity [16] was “Active”, the Activity [17] was 50.6% and the Activity [18] was 18.81%. The Activity [19] was “Dose-Dependent Effect”, the half-life [20] was 287 min and the half-life [21] was 132 min. For the same molecule, the Vdss [22] was 2.5 L/kg, the AUC(0-t) [23] was 3060 ng·h/mL and the AUC(0-t) [24] was 2870 ng·h/mL. It also gave an AUC(0-inf) [25] of 3470 ng·h/mL, an AUC(0-inf) [26] of 2920 ng·h/mL and an MRT inf [27] of 4.1 h. For the same molecule, the bioavailability [28] was 11.9%, the Activity [29] was “Active” and the Activity [30] was “Active”.
